Laboratory results published in paper PMC12301332, “Biased antagonism of a series of bicyclic CXCR2 intracellular allosteric modulators” (Frontiers in Pharmacology, 2025).

What was measured:
[1] = target: T1, CXCR2 (Homo sapiens, UniProt P25025); assay: NanoBRET β-arrestin1 recruitment inhibition assay (NanoLux) in HEK293A cells; assay type: cell-based; conditions: n = 3; for Imax βarr1 (maximum observed inhibitory effect): normalized to Imax of navarixin = 100%; for IC50: mean, read-out: IC50 βarr1
T1 construct: expressed in transfected cells
T1 sequence (P25025 1-360): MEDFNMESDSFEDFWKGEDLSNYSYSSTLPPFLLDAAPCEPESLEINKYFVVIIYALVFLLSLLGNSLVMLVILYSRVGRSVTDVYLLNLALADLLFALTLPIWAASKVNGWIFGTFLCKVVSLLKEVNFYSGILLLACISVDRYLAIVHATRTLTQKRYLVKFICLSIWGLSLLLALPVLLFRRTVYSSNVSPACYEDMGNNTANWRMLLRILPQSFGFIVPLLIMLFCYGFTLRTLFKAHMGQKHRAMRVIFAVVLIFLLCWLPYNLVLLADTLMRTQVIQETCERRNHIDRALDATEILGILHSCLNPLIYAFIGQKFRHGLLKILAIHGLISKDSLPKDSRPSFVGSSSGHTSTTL
Experimental: Cells were trypsinized and resuspended at 3 × 10^5 cell/mL in the growth medium, whereafter they were incubated for 2 hours at RT. Cells were transfected in suspension using FuGENE® HD Transfection Reagent at a 3:1 reagent to DNA ratio in Opti-MEMTM I Reduced-Serum Medium, with the final DNA concentration of 1 μg/μL. The transfection mixture was incubated for 10 min at RT before adding it to the cell suspension. Transfected cells were seeded at 3.0 × 10^4 cells/well in a white, clear, flat-bottom 96-well plate coated with 100 μg/mL poly-D-lysin ([…], Sigma Aldrich) and incubated for 48 h at 37°C and 5% CO2. HEK293A cells were transiently co-transfected with plasmids encoding β-arrestin1 protein tagged with NLuc (donor) and CXCR2 protein tagged with mNeonGreen (mNG) acceptor in a 1:10 donor to acceptor ratio, as described previously ([Luís et al., 2022]). All subsequent steps are identical to those in “NanoBRET-based G protein activation inhibition assay,” which are described above. Measurements were acquired using a 440- to 480-nm donor emission filter (#0200-6179, Molecular Devices) and a 515- to 575-nm acceptor emission filter (#0200-6203, Molecular Devices) BRET ratios were extracted from ScreenWorks software (Molecular Devices) and represent the ratio between the acceptor emission of […]2 or mNG (G protein or β-arrestin recruitment, respectively) and NLuc donor emission. The basal BRET ratio was defined as the average BRET ratio of the five consecutive readings preceding ligand addition. Changes in BRET values post ligand administration (ΔBRET) were calculated for each well as a percentage difference to the previously defined basal BRET ratio. Average ΔBRET values were baseline corrected by subtracting the average negative control BRET ratio (unstimulated condition). […] AUCs were normalized to the positive control (stimulated condition); whereafter, dose-response curves were fitted to log (inhibitor) vs response (three parameters) in GraphPad 10.2.0 (GraphPad Software). […] Calculation 1: calculation of the BRET signal. • 1. […] NC correctedΔBRET=Δ[…]. • 4. a. Neg AUC of NC correctedΔBRET=Gα activation read out. b. Pos AUC of NC correctedΔBRET=β-arrestin recruitment.

[2] = target: T1, CXCR2; assay: NanoBRET-based G protein activation inhibition assay (REGA-SIGN Gαi1 dissociation) in HEK293A.CXCR2 cells; assay type: cell-based; conditions: n = 3; for Imax Gαi1 (maximum observed inhibitory effect): normalized to Imax of navarixin = 100%; for IC50: mean
Experimental: Cells were trypsinized and resuspended at 3 × 10^5 cell/mL in the growth medium, whereafter they were incubated for 2 hours at RT. Cells were transfected in suspension using FuGENE® HD Transfection Reagent at a 3:1 reagent to DNA ratio in Opti-MEMTM I Reduced-Serum Medium, with the final DNA concentration of 1 μg/μL. The transfection mixture was incubated for 10 min at RT before adding it to the cell suspension. Transfected cells were seeded at 3.0 × 10^4 cells/well in a white, clear, flat-bottom 96-well plate coated with 100 μg/mL poly-D-lysin ([…], Sigma Aldrich) and incubated for 48 h at 37°C and 5% CO2. […] (2023)]. Following the 48-h incubation period, cells were washed with the assay buffer. Compounds were serially diluted in 1:500 Nano-Glo® Vivazine^TM working solution (#N2581, Promega), and 90 μL of compound/Vivazine mix was added, followed by incubation for 45 min at 37°C and 5% CO2. Plates were transferred to the FLIPR Penta system (Molecular Devices) at 37°C, and all steps onward are automated and performed by the FLIPR Penta system. After a 10-min equilibration period, the baseline BRET signal was determined by five consecutive reads followed by automatic administration of 10 μL of 10× ligand (Table 1) to the cell plate. Changes in the BRET signal was measured for 10 min, with each read spaced by 2.5 s. […] BRET ratios were extracted from ScreenWorks software (Molecular Devices) and represent the ratio between the acceptor emission of […]2 or mNG (G protein or β-arrestin recruitment, respectively) and NLuc donor emission. The basal BRET ratio was defined as the average BRET ratio of the five consecutive readings preceding ligand addition. Changes in BRET values post ligand administration (ΔBRET) were calculated for each well as a percentage difference to the previously defined basal BRET ratio. Average ΔBRET values were baseline corrected by subtracting the average negative control BRET ratio (unstimulated condition). […] AUCs were normalized to the positive control (stimulated condition); whereafter, dose-response curves were fitted to log (inhibitor) vs response (three parameters) in GraphPad 10.2.0 (GraphPad Software). […] Calculation 1: calculation of the BRET signal. • 1. […] NC correctedΔBRET=Δ[…]. • 4. a. Neg AUC of NC correctedΔBRET=Gα activation read out. b. Pos AUC of NC correctedΔBRET=β-arrestin recruitment.

Structure (SMILES)	Imax βarr1 (maximum observed inhibitory effect) ([1]; CXCL1 at EC80) [%]	Imax βarr1 (maximum observed inhibitory effect) ([1]; CXCL2 at EC80) [%]	Imax βarr1 (maximum observed inhibitory effect) ([1]; CXCL3 at EC80) [%]	Imax βarr1 (maximum observed inhibitory effect) ([1]; CXCL5 at EC80) [%]	Imax βarr1 (maximum observed inhibitory effect) ([1]; CXCL6 at EC80) [%]	Imax βarr1 (maximum observed inhibitory effect) ([1]; CXCL7 at EC80) [%]	Imax βarr1 (maximum observed inhibitory effect) ([1]; CXCL8 at EC80) [%]	Imax Gαi1 (maximum observed inhibitory effect) ([2]; CXCL1 at EC80) [%]	Imax Gαi1 (maximum observed inhibitory effect) ([2]; CXCL2 at EC80) [%]	Imax Gαi1 (maximum observed inhibitory effect) ([2]; CXCL3 at EC80) [%]	Imax Gαi1 (maximum observed inhibitory effect) ([2]; CXCL5 at EC80) [%]	Imax Gαi1 (maximum observed inhibitory effect) ([2]; CXCL6 at EC80) [%]	Imax Gαi1 (maximum observed inhibitory effect) ([2]; CXCL7 at EC80) [%]	Imax Gαi1 (maximum observed inhibitory effect) ([2]; CXCL8 at EC80) [%]	IC50 ([1]; CXCL1 at EC80) [µM]	IC50 ([1]; CXCL2 at EC80) [µM]	IC50 ([1]; CXCL3 at EC80) [µM]	IC50 ([1]; CXCL5 at EC80) [µM]	IC50 ([1]; CXCL6 at EC80) [µM]	IC50 ([1]; CXCL7 at EC80) [µM]	further results
CC(CO)Nc1nc(SCc2cccc(F)c2F)nc2nc(N)sc12 (centres unmarked) [MVH-23]	100	100	100	100	100	100	100	94.85 ± 3.70	100	100	94.29 ± 2.32	100	100	100							
CC(CO)Nc1nc(SCc2cccc(F)c2F)nc2[nH]cnc12 (centres unmarked) [MVH-15]	100	100	100	100	100	100	100	<50	<50	<50	<50	<50	<50	<50	3.51 ± 0.83	2.06 ± 0.57	4.29 ± 1.16	2.1 ± 0.36	2.28 ± 0.57	0.7 ± 0.14	IC50 ([1]; CXCL8 at EC80): 4.07 ± 1.6 µM; IC50 ([2]; CXCL1 at EC80): > 15 µM; IC50 ([2]; CXCL2 at EC80): > 15 µM; IC50 ([2]; CXCL3 at EC80): > 15 µM; IC50 ([2]; CXCL5 at EC80): > 15 µM; IC50 ([2]; CXCL6 at EC80): > 15 µM; IC50 ([2]; CXCL7 at EC80): > 15 µM; IC50 ([2]; CXCL8 at EC80): > 15 µM
CCCC(C)CSc1nc(NC(C)CO)c2nn[nH]c2n1 (centres unmarked) [MVH-82]	97.29 ± 1.61	96.96 ± 5.75	100	100	100	98.49 ± 1.76	100	<50	<50	<50	<50	<50	<50	<50	2.13 ± 0.34	0.74 ± 0.16	2.53 ± 0.15	1.33 ± 0.47	0.88 ± 0.47	0.37 ± 0.11	IC50 ([1]; CXCL8 at EC80): 2.32 ± 0.72 µM; IC50 ([2]; CXCL1 at EC80): > 15 µM; IC50 ([2]; CXCL2 at EC80): > 15 µM; IC50 ([2]; CXCL3 at EC80): > 15 µM; IC50 ([2]; CXCL5 at EC80): > 15 µM; IC50 ([2]; CXCL6 at EC80): > 15 µM; IC50 ([2]; CXCL7 at EC80): > 15 µM; IC50 ([2]; CXCL8 at EC80): > 15 µM
CC(CO)Nc1nc(SCc2cccc(F)c2F)nc2ncsc12 (centres unmarked) [MVH-22]	100	100	100	100	100	97.6 ± 3.45	100	<50	<50	<50	<50	<50	<50	<50	2.85 ± 0.68	1.5 ± 0.18	3.44 ± 0.75	1.96 ± 0.53	1.47 ± 0.2	0.5 ± 0.07	IC50 ([1]; CXCL8 at EC80): 2.66 ± 0.3 µM; IC50 ([2]; CXCL1 at EC80): > 15 µM; IC50 ([2]; CXCL2 at EC80): > 15 µM; IC50 ([2]; CXCL3 at EC80): > 15 µM; IC50 ([2]; CXCL5 at EC80): > 15 µM; IC50 ([2]; CXCL6 at EC80): > 15 µM; IC50 ([2]; CXCL7 at EC80): > 15 µM; IC50 ([2]; CXCL8 at EC80): > 15 µM
